Reference: patent publication US20200087374A1, “INTERACTION BETWEEN C-PEPTIDES AND ELASTIN RECEPTOR, A MODEL FOR UNDERSTANDING VASCULAR DISEASE” (Resiliun B.V., priority 2017, published 2020)
Entries after “also recorded” stand apart in the source; their conditions may differ. Where two headings read alike, the source gives them in different places.

Legend:
[1] = tested on: 30 mM glucose-induced vascular dysfunction in rats; details: cited from earlier work; for normalization/prevention of glucose-induced vascular dysfunction: 30 mM glucose, rats; for potency relative to native C-peptide: vascular dysfunction model
CD4+ immune cells = test: Boyden chamber migration of CD4+ immune cells; format: cell-based; details: for reduction/inhibition of C-peptide specific biological activity: preliminary
Procedure: Human monocytes are isolated from freshly drawn blood of healthy volunteers using serial Ficoll/Percoll gradient centrifugation, as described elsewhere. Cells are cultured for 16 hours in RPMI-1640 media supplemented with 0.5% human serum to become quiescent after isolation. Purity of the cells is >95% as determined by flow cytometry analysis. Monocyte chemotaxis is assayed in a 48-well microchemotaxis chamber (Neuroprobe, Gaithersburg, Md.) in serum-free media. Wells in the upper and lower chamber are separated by a polyvinylpyrrolidone-free polycarbonate membrane (pore size 5 μm; Costar). Freshly isolated monocytes at a density of 5×10^5/mL are incubated for 2.5 hours with recombinant C-peptide (Sigma), before migrated cells on the bottom face of the filter are stained and counted under the light microscope. Maximal chemotactic activity is measured with 0.1 mmol/L N-formyl-methionyl-leucyl-phenylalanine (f-MLF; Sigma Chemical Co), and checkerboard analysis is used to distinguish chemotaxis from chemokinesis. […] Controls for BA-4 include mouse immunoglobulin G (IgG; PharMingen, San Diego, Calif.). Exposure of cells to lactose is used to specifically dissociate the 67-kD EBP. Controls for lactose included glucose, fructose, and mannose, none of which affect the 67-kD EBP. In each case, monocytes cells are exposed to the relevant concentrations of SEQ ID NO:41 (VGVAPG) (10-9 to 10-5 mol/L), antibodies (1:1000), or sugars (1 mmol/L) for 30 minutes before the chemotaxis assays are started. […] Chemotaxis is also assayed by a double micropore membrane system in modified Boyden chambers. […] The membranes are presoaked in bovine type I collagen (25 micro-g phosphate-buffered saline per ml) (Chemicon International, Temecula, Calif.) for 24 h at room temperature to facilitate the attachment of cells. The chambers are incubated for 18 h at 37° C. in 5% CO2-balanced air. The chambers are then disassembled, and the membrane pairs are stained with hematoxylin. The cell number of a number, such as five, random and nonoverlapping fields under a microscope is counted. For all experiments, medium alone in the bottom chamber may serve as the baseline control. To confirm directed cell migration, the concentration gradient between the upper and lower compartments may be abolished by adding various doses of elastin to the cell suspension. Chemotaxis is assayed as described above.

elastin receptor = target: T1, elastin receptor (Homo sapiens, UniProt P16278); details: cited from earlier work
T1 sequence (P16278 29-546 isoform P16278-2 limits assumed): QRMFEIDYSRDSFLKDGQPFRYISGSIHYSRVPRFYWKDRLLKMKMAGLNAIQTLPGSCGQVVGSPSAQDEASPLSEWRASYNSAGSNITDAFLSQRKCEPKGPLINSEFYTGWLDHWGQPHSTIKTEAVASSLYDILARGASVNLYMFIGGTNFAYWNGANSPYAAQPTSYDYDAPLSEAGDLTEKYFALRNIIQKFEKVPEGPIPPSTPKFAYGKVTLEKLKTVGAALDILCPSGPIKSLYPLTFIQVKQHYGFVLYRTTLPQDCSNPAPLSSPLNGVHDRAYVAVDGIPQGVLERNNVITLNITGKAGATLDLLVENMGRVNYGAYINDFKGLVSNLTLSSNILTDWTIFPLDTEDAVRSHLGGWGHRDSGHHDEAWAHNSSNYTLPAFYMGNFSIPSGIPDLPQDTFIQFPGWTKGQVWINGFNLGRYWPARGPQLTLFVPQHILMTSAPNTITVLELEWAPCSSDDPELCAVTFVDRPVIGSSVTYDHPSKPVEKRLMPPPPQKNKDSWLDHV

Human monocytes = test: Monocyte chemotaxis in 48-well microchemotaxis chamber; format: cell-based; details: for induction of monocyte chemotaxis: stimulus in lower wells; for effect on monocyte chemotaxis induced by C-peptide: cells exposed 30 minutes before assay, C-peptide 0.1-10 nmol/L, antibodies 1:1000; for effect on monocyte chemotaxis induced by C-peptide / effect on monocyte chemotaxis in response to VGVAPG: sugars 1 mmol/L
Procedure: Human monocytes are isolated from freshly drawn blood of healthy volunteers using serial Ficoll/Percoll gradient centrifugation, as described elsewhere. Cells are cultured for 16 hours in RPMI-1640 media supplemented with 0.5% human serum to become quiescent after isolation. Purity of the cells is >95% as determined by flow cytometry analysis. Monocyte chemotaxis is assayed in a 48-well microchemotaxis chamber (Neuroprobe, Gaithersburg, Md.) in serum-free media. Wells in the upper and lower chamber are separated by a polyvinylpyrrolidone-free polycarbonate membrane (pore size 5 μm; Costar). Freshly isolated monocytes at a density of 5×10^5/mL are incubated for 2.5 hours with recombinant C-peptide (Sigma), before migrated cells on the bottom face of the filter are stained and counted under the light microscope. Maximal chemotactic activity is measured with 0.1 mmol/L N-formyl-methionyl-leucyl-phenylalanine (f-MLF; Sigma Chemical Co), and checkerboard analysis is used to distinguish chemotaxis from chemokinesis. Inhibition of chemotaxis is tested by competition with VGVAPG, a repetitive peptide sequence found in human and bovine elastin (Sigma Chemical Co), and BA-4, an antielastin-blocking antibody. Controls for BA-4 include mouse immunoglobulin G (IgG; PharMingen, San Diego, Calif.). Exposure of cells to lactose is used to specifically dissociate the 67-kD EBP. Controls for lactose included glucose, fructose, and mannose, none of which affect the 67-kD EBP. In each case, monocytes cells are exposed to the relevant concentrations of SEQ ID NO:41 (VGVAPG) (10-9 to 10-5 mol/L), antibodies (1:1000), or sugars (1 mmol/L) for 30 minutes before the chemotaxis assays are started. […] Monocytes in the upper wells of the assay chamber are exposed to varying concentrations of SEQ ID NO:41 (VGVAPG) for 30 minutes before stimulation by human recombinant C-peptide (0.1 nmol/L-10 nmol/L) in the lower wells. […] C-peptide-derived chemotactic activity is eliminated by competition with […]=SEQ ID NO:41 (VGVAPG), a repetitive peptide found in human elastin that binds to cellular elastin receptors, and decreases in the presence of BA-4, a monoclonal antibody that can block elastin peptide mediated chemotactic activity. Monocyte chemotaxis in response to both SEQ ID NO:41 (VGVAPG) and C-peptide is abolished in the presence of lactose, a galactosugar that specifically dissociates the 67-kD EBP, but it is unaffected by glucose, fructose, or mannose. […] Chemotaxis is also assayed by a double micropore membrane system in modified Boyden chambers. The lower compartment containing 180 micro-l of C-peptide or fragments thereof at various concentrations is separated from the upper compartment containing 200 micro-1 of cell suspension ([…] cells, such as endothelial cells or smooth muscle cells or pericytes or keratinocytes of fibroblasts or leukocytes per ml medium) by a 10 micro-m polycarbonate membrane (Millipore, Bedford, Mass.). The membranes are presoaked in bovine type I collagen (25 micro-g phosphate-buffered saline per ml) (Chemicon International, Temecula, Calif.) for 24 h at room temperature to facilitate the attachment of cells. The chambers are incubated for 18 h at 37° C. in 5% CO2-balanced air. The chambers are then disassembled, and the membrane pairs are stained with hematoxylin. The cell number of a number, such as five, random and nonoverlapping fields under a microscope is counted. For all experiments, medium alone in the bottom chamber may serve as the baseline control. To confirm directed cell migration, the concentration gradient between the upper and lower compartments may be abolished by adding various doses of elastin to the cell suspension. Chemotaxis is assayed as described above. Chemotaxis may also be studied in an ex vivo aortic ring assay measuring endothelial cell migration and proliferation

[2] = tested on: arteriosclerotic lesion development; details: mice; cited from earlier work
[3] = in vivo; cited from earlier work
Na^+K^+ATPase = details: rat renal tubule cells; cited from earlier work
[4] = tested on: cell membrane-bound C-peptide; details: cited from earlier work
[5] = tested on: human renal tubular cells; details: cited from earlier work
[6] = tested on: MAP kinase signalling pathways; details: cited from earlier work
Na(+),K(+)-ATPase = details: cited from earlier work

For “DLQVGQVELGGGPGAGSLQPLALEGSLQ [SEQ ID NO:10]”, the “normalization/prevention of glucose-induced vascular dysfunction” value (from here on “normalization/prevention”) [1] is given as “significant normalization”.
In the case of VVGSPSAQDEASPL [V14 peptide], the “C-peptide-induced CD4-migration antagonized and diminished” value (CD4+ immune cells; V14-peptide at 1.3 microM, C-peptide at 10 nM) is listed as over 50%, the “reduction/inhibition of C-peptide specific biological activity” value (CD4+ immune cells; in vitro) is listed as “inhibition of bioactivity of C-peptide” and the “antagonism of elastin peptide (ERC-ligand) binding to elastin receptor/EBP” value (“antagonism … to elastin receptor/EBP” below) (elastin receptor) is listed as “antagonise elastin peptide binding; also recorded: inhibited; also recorded: antagonized”.
With “EAEDLQVGQVELGGGPGAGSLQPLALEGSLQ [C-peptide]” the “increase of migration of CD4+ immune cells” value (CD4+ immune cells; C-peptide at 10 nM, 1% serum medium, in vitro) was 100%, the “checkerboard analysis: chemotaxis versus chemokinesis” value (Human monocytes) was “stimulates chemotaxis without a chemokinetic effect” and the “induction of monocyte chemotaxis” value (Human monocytes) was “stimulates a concentration-dependent increase in monocyte migration”. The “arteriosclerotic lesion development / atherogenicity” value [2] was “promote experimental arteriosclerotic lesion development in mice; also recorded: atherogenic in mice”, the half-life [3] was 30 min and the plasma half-life [3] was about 30 min.
For GGGPGAG [SEQ ID NO:8], the “normalization/prevention” value [1] is given as “normalize glucose-induced vascular dysfunction”.
For “EAEDLQVGQVELGGGPGAGSLQPL (EAEDLQVGQVELGGGPGAGSLQPLAL) [SEQ ID NO:17]”, the “normalization/prevention” value [1] is given as “significant normalization”.
In the case of “D-EAEDLQVGQVELGGGPGAGSLQPLALEGSLQ (all D-amino acids) [enantio C-peptide]”, the “normalization/prevention” value [1] is given as “biologically active” and the “potency relative to native C-peptide” value [1] is given as “equipotent to native C-peptide”.
In the case of ELGGGPGAGSLQPL [SEQ ID NO:176], the “normalization/prevention” value [1] is listed as “significant normalization”.
In the case of GQVELGGGPGAGSLQPLALEGSLQ [SEQ ID NO:13], the “normalization/prevention” value [1] is listed as “significant normalization”.
In the case of ELGGGPGAG [SEQ ID NO:9], the “Na+K+ATPase activity” value (Na^+K^+ATPase) is listed as “stimulate”.
For EGSLQ [SEQ ID NO:6], the “displacement of cell membrane-bound C-peptide” value [4] is listed as “displaces cell membrane-bound C-peptide”, the “intracellular Ca2+” value [5] is listed as “increases intracellular Ca(2+)” and the “intracellular Ca2+” value ([5]; listed as SEQ NO:6) is listed as “may induce intracellular Ca2+ increases”. For the same compound, the “MAP kinase signalling pathways” value [6] was “stimulates MAP kinase signalling pathways” and the “Na(+),K(+)-ATPase” value (Na(+),K(+)-ATPase) was “stimulates”.
For DLQVGQVELGGGPGAGSLQPL [SEQ ID NO:20], the “normalization/prevention” value [1] is listed as “significant normalization”.
In the case of LGGGPGAGSLQPLALEGSLQ [SEQ ID NO:14], the “normalization/prevention” value [1] is listed as “significant normalization”.
For `OC[C@H]1O[C@@H](O[C@H]2[C@H](O)[C@@H](O)C(O)O[C@@H]2CO)[C@H](O)[C@@H](O)[C@H]1O` (stereo partly shown) [lactose], the “reduction/inhibition of C-peptide specific biological activity” value (CD4+ immune cells; in vitro) was “reduction of C-peptide specific biological activity”, the “effect on monocyte chemotaxis induced by C-peptide” value (“effect … by C-peptide” below) (Human monocytes) was “abolished” and the “effect on monocyte chemotaxis in response to VGVAPG” value (Human monocytes) was “abolished”. The “antagonism … to elastin receptor/EBP” value (elastin receptor) was “inhibited; also recorded: antagonized” and the “antagonism … to elastin receptor/EBP” value (elastin receptor; listed as Lactose) was “antagonise elastin peptide binding”.
For “EAENPQAGAVELGGGLGGLQALALEGPPQ [pig C-peptide, pig C-peptide, midportion LGGGLG]”, the “normalization/prevention” value [1] is listed as “inactive”.
With VGVAPG [SEQ ID NO:41] the “concentration of maximal chemotactic activity” value (Human monocytes) was 0.1 mmol/L, the “effect … by C-peptide” value (Human monocytes) was “eliminates monocyte chemotaxis induced by C-peptide” and the “effect of preincubation on chemotactic response to f-MLF” value (Human monocytes; preincubation of monocytic cells) was “does not alter the chemotactic response to f-MLF”. The “chemotactic potency compared with f-MLF” value (Human monocytes; same concentration of f-MLF) was “considerably more potent than the same concentration of f-MLF”, the “induction of monocyte chemotaxis” value (Human monocytes) was “induces chemotaxis in a concentration-dependent manner” and the “binding to elastin receptor” value (elastin receptor) was “binding has been demonstrated”. For the same compound, the “arteriosclerotic lesion development / atherogenicity” value [2] was “promote experimental arteriosclerotic lesion development in mice”.
In the case of `O=C(CO)[C@@H](O)[C@H](O)[C@H](O)CO` [fructose], the “effect … by C-peptide” value (Human monocytes) is reported as “unaffected” and the “effect on monocyte chemotaxis in response to VGVAPG” value (Human monocytes) is reported as “unaffected”.
For VGQVELGGGPGAGSLQPL [SEQ ID NO:175], the “normalization/prevention” value [1] is listed as “significant normalization”.
For “QLSGELALPQLSGAGPGGGLEVQGVQLDEAE (retro C-Peptide)”, the “normalization/prevention” value [1] is given as “biologically active” and the “potency relative to native C-peptide” value [1] is given as “equipotent to native C-peptide”.
In the case of “EVEDPQVPQLELGGGPEAGDLQTLALEVARQ [Rat C-peptide, rat C-peptide comprising hexapeptide LGGGPE]”, the “normalization/prevention” value [1] is listed as “active”.
